{"source": "patent US20150158956A1", "about": "“MULTIVALENT ANTIVIRAL COMPOSITIONS, METHODS OF MAKING, AND USES THEREOF” (The Charles Stark Draper Laboratory, Inc., priority 2013, published 2015)", "key": {"[1]": {"tested_on": "respiratory syncytial virus (RSV)", "assay": "RSV plaque (PFU) assay, sample added to Vero cells simultaneously with RSV (Example 6)", "format": "cell-based", "description": "The ability of purified sulfated octasaccharide, in solution, to block respiratory syncytial virus (RSV) infection of Vero cells was examined. The blocking ability of purified sulfated octasaccharide was compared to heparin sodium.\nPurified sulfated octasaccharide was prepared according to the method of Example 1. Vero cells were seeded into 24-well plates and incubated at 37° C. for 24 hours to form monolayers. Samples were diluted to the desired concentration in sterile DMEM in a final volume of 225 μl. Full-length heparin sodium (the starting material) or purified HSocta was added to Vero cells simultaneously with RSV that was diluted to 300 PFU/mL then incubated at 37° C. for 30 min. Vero cells were washed with PBS and samples were incubated at 37° C. for 1 hour on Vero cells and then washed with PBS and incubated with DMEM containing 10% FBS and incubated at 37° C. for 72 h. Cells were fixed and stained with anti-glycoprotein F and anti-glycoprotein G antibodies (MAB858-2 and MAB8262F Millipore, Billerica, Mass.). Plaques were visualized with anti-mouse horseradish peroxidase-conjugated secondary antibody (BD Biosciences, San Jose, Calif.) and developed with peroxidase substrate kit (Vector Laboratories, Burlingame, Calif.). Viral plaques in the Vero monolayer were counted and the PFU/mL was determined."}, "[2]": {"tested_on": "RSV strain A2", "assay": "RSV plaque assay on Vero cell monolayers, sample pre-mixed with RSV strain A2 (Example 7)", "format": "cell-based, respiratory syncytial virus", "details": "in solution; Vero cells; 200 PFU RSV strain A2, 30 min at 37° C. pre-mix; read-out: concentration achieving a 50% reduction in RSV infectivity", "description": "The ability of liposomes to block RSV infection of Vero cells was examined. The blocking ability of liposomes was compared to purified sulfated octasaccharide, in solution, and a control, i.e., a liposome without sulfated octasaccharides. Liposomes were prepared using the method described in Example 3. […] Purified sulfated octasaccharide as described in Example 1, in solution or incorporated into liposomes, at the concentrations indicated were assessed using a plaque assay. Confluent Vero cell monolayers were formed by adding 1×10^6 Vero cells to wells of a 12-well plate then incubating the cells in 1 ml Dulbecco's Modified Eagle Medium (DMEM) with 4 mM glutamine and 10% fetal bovine serum as growth medium. The medium was removed from the cells. Sulfated octasaccharide, liposomes, or buffer at the concentrations indicated (see FIG. 5) were mixed with 200 PFU RSV strain A2 in 150 mM phosphate buffered saline for 30 min at 37° C. and the mixture was added to the monolayer surface. After one hour, the mixtures were removed, and the cells were washed and overlaid with 1 ml plaquing medium (DMEM with 4 mM glutamine, 2% FBS, and 0.4% agarose). After 5 to 7 days incubation at 37° C., the number of RSV plaques was counted. Liposome treated virus was compared to untreated virus, which represented 100% infectivity."}}}
{"substance": "GlcUA(2S)-GlcNS(6S)-Ido(2S)-GlcNS(6S)-Ido(2S)-GlcNS(6S)-Ido(2S)-GlcNS(6S) [purified sulfated octasaccharide]", "values": [{"measurement": "blocking PFU formation", "setting": "[1]; at 1 μg/ml or higher, RSV, Vero cells (results text says MDCK cells)", "result": "roughly 50%"}, {"measurement": "anti-RSV properties, ability to block infection of cells", "setting": "[1]; in solution, results text says MDCK cells", "result": "strong anti-RSV properties"}, {"measurement": "IC50", "setting": "[2]", "result": "~500", "unit": "µM"}]}
